# PubChem BioAssay (NCI)
# “And” between values parts separate entries of the source, which are not always exact repeats. Equal entries are not always repeated.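 Results reflect a 48-hour exposure of cells in 96-well plates to compound at five concentrations. GI50 marks 50% less growth. TGI is the concentration that stops growth completely.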
# Key:
# Assay in all cases: inhibition of tumour cell growth, NCI panel, 48 h
# EKVX NSCLC = tested on: EKVX NSCLC
# UO-31 renal = tested on: UO-31 renal
# IGROV1 ovarian = tested on: IGROV1 ovarian
# LOX IMVI melanoma = tested on: LOX IMVI melanoma
# MDA-MB-231 breast = tested on: MDA-MB-231 breast
# SK-MEL-5 melanoma = tested on: SK-MEL-5 melanoma
# SR leukemia = tested on: SR leukemia
# CAKI-1 renal = tested on: CAKI-1 renal
# SK-OV-3 ovarian = tested on: SK-OV-3 ovarian
# HCC-2998 colon = tested on: HCC-2998 colon
Structure (SMILES),GI50 (EKVX NSCLC),TGI (EKVX NSCLC),GI50 (UO-31 renal),TGI (UO-31 renal),GI50 (IGROV1 ovarian),TGI (IGROV1 ovarian),GI50 (LOX IMVI melanoma),TGI (LOX IMVI melanoma),GI50 (MDA-MB-231 breast),TGI (MDA-MB-231 breast),GI50 (SK-MEL-5 melanoma),TGI (SK-MEL-5 melanoma),GI50 (SR leukemia),TGI (SR leukemia),GI50 (CAKI-1 renal),TGI (CAKI-1 renal),GI50 (SK-OV-3 ovarian),TGI (SK-OV-3 ovarian),GI50 (HCC-2998 colon),TGI (HCC-2998 colon)
COc1cc2c(cc1OCCCCCn1c3ccccc3c3ccccc31)N=C[C@@H]1CCCN1C2=O,5.27 µM,18.7 µM,1.52 µM,2.93 µM,2.08 µM,4.69 µM,2.01 µM,4.88 µM,1.73 µM,3.69 µM,1.73 µM,3.15 µM,15.4 µM,> 100 µM,1.93 µM,4.58 µM,4.57 µM,16.8 µM,1.71 µM,3.18 µM
c1ccc2c(CN3CCC(C4CCN(Cc5cccc6ccccc56)CC4)CC3)cccc2c1,35.1 µM and > 91.4 µM,> 100 µM,3.84 µM and 29.4 µM,16.2 µM and > 100 µM,32.2 µM and > 79.4 µM,> 100 µM,4.33 µM and 10.2 µM,16.8 µM and 23.4 µM,,> 74.1 µM,,14.2 µM and 9.41 µM,1.47 µM and 10.2 µM,,3.7 µM and 34.3 µM,21.2 µM and > 100 µM,,75.2 µM and > 100 µM,,2.97 µM and 5.61 µM
Cn1ncnc1C1c2n[nH]c(=O)c3cc(F)cc(c23)NC1c1ccc(F)cc1 (stereo not given),,,11.9 µM,> 100 µM,> 100 µM,> 100 µM,6.63 µM,> 100 µM,> 100 µM,> 100 µM,> 100 µM,> 100 µM,< 0.0265 µM,> 62.5 µM,9.37 µM,> 100 µM,> 42.7 µM,> 100 µM,> 100 µM,> 100 µM
COc1cc2nncc(SCc3ccc(Cl)c(Cl)c3)c2cc1OC,,> 100 µM,,> 100 µM,,> 100 µM,,> 100 µM,,> 100 µM,,> 100 µM,,> 100 µM,,> 100 µM,,> 100 µM,,> 100 µM
Nc1cc(-c2ccccc2)n(C(=O)Nc2ccc(Oc3ccccc3)cc2)n1,> 100 µM,> 100 µM,52.5 µM,> 100 µM,36 µM,> 100 µM,> 100 µM,> 100 µM,27.3 µM,> 100 µM,> 100 µM,> 100 µM,22.2 µM,43.5 µM,28.9 µM,77.2 µM,68.9 µM,> 100 µM,> 100 µM,> 100 µM
COc1cc(-c2oc3c(OC)c(O)cc(O)c3c(=O)c2OC)ccc1O,,72.5 µM,,14.8 µM,,15.3 µM,,> 55.8 µM,,> 100 µM,,20.4 µM,,> 26.7 µM,,51.5 µM,,9.15 µM,,50.4 µM
Cc1ccc([N+](=O)[O-])c2c(NCCC[N+](C)(C)[O-])ccnc12,,> 100 µM,,> 100 µM,,67.3 µM,,> 100 µM,,> 100 µM,,24.6 µM,,> 100 µM,,> 100 µM,,> 100 µM,,58.9 µM
CCCC(CCC)C(=O)OCC1(CO)C/C(=C\c2ccc(C(F)(F)F)cc2)C(=O)O1 (stereo not given),11 µM,27.2 µM,12.2 µM,26.5 µM,14.8 µM,33 µM,10 µM,22.8 µM,7.66 µM,22.9 µM,0.948 µM,19.6 µM,14.9 µM,31.1 µM,6.16 µM,21.2 µM,19.7 µM,34 µM,10.9 µM,24 µM
COc1cc2c3cc1Oc1c(OC)c(OC)cc4c1C(Cc1ccc(cc1)Oc1cc(ccc1O)CC3N(C)CC2)N(C)CC4 (stereo not given),,> 100 µM and 33.3 µM,,21.5 µM and 20.6 µM,,43.8 µM and 29.4 µM,6.39 µM and 2.56 µM,19.1 µM,,24.5 µM,6.2 µM and 1.81 µM,18.7 µM and 3.72 µM,,8.98 µM and 7.5 µM,,42.9 µM and 31.4 µM,,69.6 µM and 86.2 µM,11.7 µM and 2.71 µM,25 µM and 11.7 µM
Cc1c(C(N)=O)sc2c1c(=O)n(Cc1ccccc1)c1nnc(S(=O)(=O)CC(=O)Nc3ccc(Cl)cc3)n21,5.89 µM,27.4 µM,2.86 µM,11.3 µM,8.57 µM,24.3 µM,6.15 µM,20.6 µM,4.24 µM,18.5 µM,6.02 µM,20.7 µM,6.71 µM,30.3 µM,2.94 µM,11.8 µM,3.24 µM,7.81 µM,18.7 µM,> 100 µM
CN(CCCN(C)CCC1CCCCC1)CCC1CCCCC1,2.24 µM,11.1 µM,1.58 µM,14.4 µM,1.09 µM,5.54 µM,1.61 µM,3.55 µM,1.38 µM,4.68 µM,1.32 µM,2.61 µM,1.19 µM,4.21 µM,1.52 µM,3.82 µM,5.34 µM,17.1 µM,1.6 µM,3.23 µM
CC1=NN(C(=O)c2nn(-c3ccc(Cl)cc3)cc2O)C(=O)C1,1.93 µM,> 100 µM,2.87 µM,> 100 µM,0.505 µM,41 µM,2.66 µM,> 100 µM,2.75 µM,> 100 µM,3.45 µM,> 36.9 µM,0.419 µM,7.97 µM,1.89 µM,26.4 µM,1.79 µM,> 100 µM,3.37 µM,> 100 µM
CCN(CC)CCC(=O)O[C@H]1CC[C@H](CC(C)[C@H]2CC(=O)C(C)C=C(C)[C@H](OC(=O)CCN(CC)CC)C(OC)C(=O)[C@@H](C)CC(C)/C=C/C=C/C=C(C)C(OC)CC3CC[C@H](C)[C@](O)(O3)C(=O)C(=O)N3CCCCC3C(=O)O2)CC1OC (stereo not given in full),0.00704 µM,> 10 µM,0.00067 µM and 0.00513 µM,3.08 µM and 1.51 µM,0.00595 µM,1.81 µM and 1.74 µM,0.00795 µM,1.94 µM and 1.65 µM,1.86 µM,8.14 µM and 1.74 µM,0.0401 µM,1.85 µM and 2.16 µM,,3.46 µM and 0.618 µM,,3.06 µM,,5.53 µM,1.03 µM,2.29 µM and 2.04 µM
CN(C)c1ncnc2c1ccn2C1OC(CO)C(O)C1O (stereo not given),3.98 µM,> 92.3 µM,1.37 µM,13.7 µM,0.237 µM,4.22 µM,0.559 µM,12.2 µM,1.82 µM,5.96 µM,> 100 µM,> 100 µM,13.8 µM,> 100 µM,1.58 µM,> 39.8 µM,0.884 µM,21.4 µM,1.89 µM,18.1 µM
CC(=O)n1c(-c2ccc(Cl)c(Cl)c2)cn(-c2ccc(Cl)cc2)c1=O,12.5 µM,34.6 µM,24.7 µM,51.4 µM,,,83.6 µM,> 100 µM,17.6 µM,62.6 µM,32.2 µM,> 100 µM,16.1 µM,33 µM,20.8 µM,43.9 µM,19.2 µM,44.1 µM,91.5 µM,> 100 µM
O=c1[nH]nc(-c2ccccc2)c2c(-c3ccccc3)onc12,1.25 µM,> 100 µM,0.592 µM,> 100 µM,0.615 µM,> 100 µM,0.877 µM,> 100 µM,17.7 µM,> 100 µM,0.352 µM,,0.288 µM,,0.728 µM,> 100 µM,0.981 µM,53.6 µM,39.7 µM,> 96.3 µM
Cc1ccc(-c2c3c(N)c4c(nc3nc3c2c(C)nn3-c2ccccc2)CCC4)cc1,,,1.87 µM,3.94 µM,4.02 µM,16.2 µM,1.98 µM,3.99 µM,1.85 µM,3.98 µM,1.73 µM,3.31 µM,0.472 µM,9.61 µM,6.89 µM,16.6 µM,7.01 µM,15 µM,3 µM,8.43 µM
CCc1c2c(nc3ccc(OCc4ccc(B5OC(C)(C)C(C)(C)O5)cc4)cc13)-c1cc3c(c(=O)n1C2)COC(=O)[C@]3(O)CC,0.431 µM,> 100 µM,0.0326 µM,1.02 µM,0.134 µM,> 100 µM,< 0.01 µM,0.355 µM,1.1 µM,> 100 µM,0.0372 µM,0.338 µM,< 0.01 µM,> 100 µM,0.0162 µM,1.22 µM,,,0.185 µM,> 100 µM
CNc1ncc2cc(Oc3ccc(F)cc3F)c(=O)n(C)c2n1,,,> 25 µM,> 25 µM,> 25 µM,> 25 µM,> 25 µM,> 25 µM,> 24.1 µM,> 25 µM,> 25 µM,> 25 µM,> 25 µM,> 25 µM,> 25 µM,> 25 µM,> 25 µM,> 25 µM,> 25 µM,> 25 µM
CN(C)N=Nc1nn(C(=O)Nc2ccc(Cc3ccccc3)cc2)c2ccccc12,,,3.23 µM,> 79 µM,43.5 µM,> 100 µM,0.0625 µM,> 73.3 µM,1.37 µM,> 100 µM,0.122 µM,1.09 µM,> 100 µM,> 100 µM,1.12 µM,> 100 µM,> 100 µM,> 100 µM,0.802 µM,> 47.7 µM
CN(C)C(=S)SCC(N)=O,,> 100 µM,,,,> 100 µM,,> 100 µM,,> 100 µM,,> 100 µM,,> 100 µM,,> 100 µM,,> 100 µM,,> 100 µM
